Assay results: patent US9624235B2, “Compounds and methods for inhibition of AP endonuclease-1/redox factor-1 (HAPE1) activity” (University of Pittsburgh—Of the Commonwealth System of …, priority 2012, dated 2017)
Like-named read-outs stand apart in the source and are kept apart here. Where a SMILES comes first, the peptide text is derived from it. The star is where a group is joined. Tos = Cc1ccc(S(=O)(=O)*)cc1; Bn = c1ccc(C*)cc1

Experiments:
APE-1 [1] = biological target: T1, APE-1 (Homo sapiens (Human), UniProt P27695); assay: Molecular beacon assay for APE-1 endonuclease inhibition; assay type: biochemical; settings: molecular beacon assay, endonuclease activity
T1 sequence (P27695 whole entry): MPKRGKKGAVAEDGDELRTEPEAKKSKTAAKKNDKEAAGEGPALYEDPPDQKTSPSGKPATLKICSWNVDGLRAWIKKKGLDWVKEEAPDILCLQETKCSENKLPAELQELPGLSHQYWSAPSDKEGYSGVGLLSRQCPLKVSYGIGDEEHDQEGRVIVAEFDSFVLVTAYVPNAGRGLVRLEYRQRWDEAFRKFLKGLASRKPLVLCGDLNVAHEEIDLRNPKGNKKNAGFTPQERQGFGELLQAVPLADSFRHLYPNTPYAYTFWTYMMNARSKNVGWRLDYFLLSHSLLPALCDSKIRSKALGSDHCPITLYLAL
From the text: Screening Assays for APE1 Inhibition—The initial screen was designed to look at the effect of potential inhibitors on APE1 repair kinetics. The approach can be used as a high throughput screen by choosing a specific timepoint to monitor. The screen utilizes a molecular beacon with a tetrahydrofuran (THF) abasic site within the stem region of a DNA hairpin that has a fluorophore on the 5′-terminus and a quencher on the 3′-terminus (FIG. 2a). […] An example of the molecular beacon screen and the excision assay are shown in FIGS. 2b,c and 2d, respectively.
Molecular Beacon Assay for Screening of APE-1 Inhibitors. A fluorescence-based molecular beacon assay to measure APE-1 protein activity and inhibition was performed as described previously with some modifications. Tang et al. Neuro Oncol. 13, 471-486 (2011) APE-1 (2 nM) in 10 mM HEPES (pH 7.8) 0.5 mM MgCl, 100 mM NaCl, 100 mM KCl, 0.0005% (w/v) BSA, was incubated with 20 nM 5′-(F)-CGACTXTTGAATTGACACGCCATGTCGATCAATTCAATAGTCG-(D)-3′ [X=tetrahydrofuran (THF) abasic site modification; F, 6-carboxyfluorescein (6-FAM); and D, DABCYL] that forms a hairpin with a 15 base pair stem and a 13 base loop. The THF modification is a known substrate for APE-1 excision. APE-1 mediated cleavage of the phosphodiester backbone at the THF-abasic site led to release of the 5′ 6-FAM (fluorophore) containing pentanucleotide, disrupting the Förster Resonance Energy Transfer (FRET) mediated quenching of the 6-FAM by DABCYL in the native hairpin oligomer. Since the signal was generated by continuous liberation of the fluorophore-labeled excision fragment, progress of this reaction could be monitored in real-time using a Cary Eclipse fluorescence spectrometer (Varian, Palo Alto, Calif.) or a Synergy H1 multi-well plate reader (BioTek, Winooski, Vt.). Reactions were optimized to yield ˜90% substrate turnover in 10 min, and fluorescence intensities measured every 12 s at 495 nm excitation and 520 nm emission. Data from the first 1-3 min of the assays (linear phase) were used to determine rate of substrate turnover (V0). The Michaelis constant (KM) was deduced experimentally, by incubating 2 nM APE-1 protein with 2-500 nM hairpin DNA substrate and measuring V0 —the experimentally observed V0 were analyzed as a function of substrate concentration [S] via non-linear regression using Prism (v.4; GraphPad Software, Inc., La Jolla, Calif.) and the KM was calculated as per the algorithm in the software package. To assay inhibition, 2 nM APE-1 protein was pre-incubated with 0.05-10.00 μM of the candidate inhibitors at 25° C. for 60 min, before initiating the excision assay by addition of hairpin DNA substrate. V0 was calculated at various concentrations of inhibitors and represented as inverse function of increasing inhibitor concentration [I]. […] All assays were carried out in three independent sets to obtain mean data and standard error of mean.
(§1) Screening for APE-1 Inhibitors. […] In this assay, the DNA hairpin substrate has a 6-FAM fluorophore on the 5′-terminus, a DABACYL fluorescence quencher on the 3′-terminus and a THF abasic site located 6 base pairs from the 5′-terminus in the stem region (FIG. 6). APE-1 activity is monitored as an increase in fluorescence due to the release of the 5′-(6-FAM)-GCACT fragment as a function of time. […] In this assay, substrate turnover was calculated from relative intensities of cleaved vs. intact oligomers and correlated with inhibitor concentration.

APE-1 [2] = biological target: T1, APE-1; assay: Gel-based excision assay for APE-1 inhibitors; assay type: biochemical; settings: APE-1 cleaved fragment vs. full length DNA substrate
Description: as §1

[3] = biological target: APE-1 activity in T98G cell nuclear lysates (Homo sapiens (Human), UniProt P27695); assay: Molecular beacon assay in T98G cell nuclear extracts; assay type: biochemical
APE-1 activity in T98G cell nuclear lysates, sequence (P27695 whole entry, stated change not applied): as the sequence (P27695 whole entry) above
Description: Isolation and Assay of APE-1 Protein from Nuclear Extracts of Glioma Cells. Human glioblastoma cells (T98G) were maintained in growth medium, i.e., Eagle's Minimum Essential Medium (EMEM) with 10% fetal bovine serum (FBS), […] gentamycin, 1×MEM non-essential amino acids and 1 mM sodium pyruvate. Cells were harvested by Trypsin-EDTA treatment, washed with 1×PBS and nuclear proteins isolated using the CelLytic NuCLEAR Extraction kit (Sigma-Aldrich) as per manufacturer's instructions. Isolated nuclear proteins were estimated colorimetrically (BCA protein assay) and stored at −80° C. (long term) or at −20° C. during regular use. To assay APE-1 activity in T98G cells, nuclear extracts were serially diluted in 10 mM HEPES, 50 mM KCl, 1 mM DTT, 20% (v/v) glycerol and the activities measured via the molecular beacon assay (as described above). […] EC2 nM of nuclear extracts was incubated with 2 to 500 nM hairpin DNA substrate and the V0 measured for each value of [S]. Finally, the apparent KM* was deduced using the software algorithm in Prism (as described previously), and the KM* was used to determine the apparent Ki*. Inhibition of EC2 nM APE-1 activity by the inhibitors was assayed via the molecular beacon assay (described above).
Inhibition of APE-1 Activity in Nuclear Lysates. The ability of 1-5 and 8 to block APE-1 endonuclease activity in a complex mixture of proteins from T98G cell nuclear lysates was tested using the molecular beacon assay. The APE-1 activity in the lysates was standardized to give ˜90% turnover of 25 nM substrate in 10 min.

[4] = tested on: aldehyde reactive sites in genomic DNA from T98G cells; assay type: cell-based, human; settings: 0.25 μM compound alone
Description: Quantification of Abasic Sites. T98G cells maintained in growth medium, were harvested by Trypsin-EDTA treatment, resuspended in fresh growth medium at a density of 2.5×10^5 cells mL^−1, and 2 mL (5×10^5 cells) of this suspension was seeded into the wells of a sterile 6-well tissue culture plate. Cells were allowed to grow for 24 h, treated with the various compounds for different time points and/or at different concentrations. At the end of each treatment, adherent cells were harvested by trypsin-EDTA treatment and pooled with live and dead cells in culture supernatant. Pooled cells in suspension were pelleted by centrifugation, washed with 1×PBS and genomic DNA was isolated using the DNAzol reagent (Invitrogen). DNA in solution was quantified by UV absorbance (λ260 nm) using a Synergy H1 multiwell plate reader (BioTek, Winooski, Vt.). Abasic sites in purified DNA were then reacted with the biotin-conjugated aldehyde reactive probe (ARP), immobilized onto 96-well ELISA plates, and detected using horseradish peroxidase (HRP)-conjugated streptavidin using a colorimetric substrate as per manufacturer's instructions (Dojindo Molecular Technologies, Rockville, Md.).
The biotin tagged ARS are quantified using an avidin-biotin assay, followed by colorimetric detection with horseradish peroxidase conjugated to avidin.

[5] = read-out: Ki APE-1 endonuclease inhibition
[6] = read-out: Ki APE-1 endonuclease inhibition (ND classes)

SMILES	Ki (APE-1 [1]; [5]) [µM]	Ki (APE-1 [1]; [6]) [µM]	other results
COc1cccc(/C=N/Nc2cc(C)nc3cc4c(cc23)OCO4)c1 [Compound 2]	0.22	–	IC50 (APE-1 [2]): 10.1 µM; Ki [3]: 0.24 µM
Cc1cc(N/N=C/c2ccc([N+](=O)[O-])o2)c2cc3c(cc2n1)OCO3 [Compound 6]	0.64	–	–
C/C(=N\Nc1cc(C)nc2ccc(C)cc12)c1cn(C)n(-c2ccccc2)c1=O [Compound 7]	10.9	–	–
C/C(=N\Nc1cc(C)c2ccccc2n1)c1cn(C)n(-c2ccccc2)c1=O [Compound 8]	–	> 100	IC50 (APE-1 [2]): > 100 µM; effect on ARS [4]: same as background
C=C(C[N+](=O)[O-])NC(CCCCNc1ccc([N+](=O)[O-])cc1N(O)O)C(=O)O (centres unmarked) [Compound 9]	13	–	–
C/C=C/C(=O)NCCCCNC(=O)/C=C/c1ccc([N+](=O)[O-])cc1 [Compound 10]	17	–	–
COc1ccc(/C(Cc2ccccc2)=N\Nc2ccc([N+](=O)[O-])c([N+](=O)[O-])c2)cc1 [Compound 11]	6.7	–	–
COc1ccc(C2C3=C(CC(C)(C)CC3=O)Oc3cc4c(cc32)OCO4)c(OC)c1 (centres unmarked) [Compound 12]	32	–	–
N=c1[nH]nc2nc(CC(=O)c3ccccc3[N+](=O)[O-])c(CC(=O)c3ccccc3[N+](=O)[O-])nn12 [Compound 13]	4.9	–	–
O=C(/C=C(/Nc1ccccc1)C(=O)c1ccccc1)c1ccccc1 [Compound 14]	37	–	–
O=C(NNc1ccnc2cc(Cl)ccc12)/C(=C/c1ccccc1Cl)NC(=O)c1ccccc1 [Compound 15]	–	> 100	–
Nc1ncnc2c1ncn2C1OC(C(=O)NCC(=O)O)C(O)C1O (centres unmarked) [Compound 16]	–	> 100	–
CC(N)C(=O)NC1C(CO)OC(n2cnc3c(N)ncnc32)C1O (centres unmarked) [Compound 17]	–	> 100	–
O=C(O)CC1(CC(=O)NCCc2c[nH]c3ccccc23)OCCO1 [Compound 18]	–	> 100	–
O=C(O)C(Cc1c[nH]c2ccc(O)cc12)NCC1(O)OCC(O)C(O)C1O (centres unmarked) [Compound 19]	–	> 100	–
Cn1c(=N)[nH]c2c(nc(OCc3ccccc3)n2C2OC(O)C(O)C2O)c1=O (centres unmarked) [Compound 21]	–	> 100	–
CC(NC(=O)/C(=C/c1ccccc1)NC(=O)c1ccccc1)c1ccccc1 (centres unmarked) [Compound 22]	–	> 100	–
Cc1ccc(S(=O)(=O)NC(CSCc2ccccc2)C(=O)NC(Cc2ccc(O)cc2)C(=O)O)cc1 (centres unmarked) [Compound 25] (Tos-Cys(Bn)-Tyr-OH; configuration not given here)	–	> 100	–
CCOC(=O)CC/C(=C\NC(=O)c1ccccc1)NC(=O)c1ccccc1 [Compound 26]	–	> 100	–
Cc1cc2cc3c(cc2n2c(SCC(=O)N4c5ccccc5CCc5ccccc54)nnc12)OCO3 [Compound 28]	–	> 100	–
CCc1cc2cc(C)c(C)cc2nc1SCC(=O)N1CCN(C(=O)c2ccco2)CC1 [Compound 29]	–	> 100	–
CC(=O)N1N=C(c2cccc(NS(C)(=O)=O)c2)CC1c1cc2cc(C)c(C)cc2nc1Cl (centres unmarked) [Compound 30]	–	> 100	–
